Data published in patent US9073892B2, “Indazolyl triazol derivatives” (Merck Serono S.A., priority 2010, dated 2015).

How the values were obtained:
[1] = test system: T1, IRAK1/4 human; experiment: IRAK1/4 phosphorylation IC50 (enzymatic assay, table 2); assay type: biochemical; conditions: human IRAK1/4 phosphorylation
T1 construct: fused on or other part: His tag and TEV cleavage site at the N-terminus
How it was run: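 His-TEV-tagged human IRAK-1 or IRAK-4 (IRAK-4 with STK1-biotin peptide) was incubated in 384-well plates with ATP and compounds in DMSO from 20 µM to 1 nM, with 2% DMSO controls. The buffer was Hepes pH7.0 50 mM with MgCl2, DTT, EGTA and BSA, and reactions ran 2 or 3 hours. Inhibition was reported as IC50.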

[2] = test system: IL1β-induced IL8 release in THP1 cells; experiment: IRAK IL8 secretion functional assay; assay type: cell-based; conditions: Homo sapiens; THP-1 cells, IL1β 100 ng/ml overnight, IL8 by HTRF; read-out: IC50, Secretion THP-1/IL-β induced IL8 release
Text: IRAK IL8 Secretion Functional Assay:
THP1 cells are human monocytes derived from acute monocytic leukemia. IL1β receptor expressed on the surface membrane of THP1 cells induced IL8 release. IRAKs are kinase signaling downstream of TLRs and TNF, IL-18, IL-33 and IL-1 receptors.
In cells, IRAK4 is upstream of IRAK1.
The Human IL8 Kit, provided by CysBio International based in Bagnols/Cèze FR, allows for the quantitative determination of IL-8 in cell-culture supernatants.
Anti-cytokine IL8 antibodies are respectively labeled with europium Cryptate and XL665. Upon their binding to IL-8 molecules, the two antibodies come into close proximity, allowing FRET (Fluorescence Resonance Energy Transfer) to occur. This FRET increases proportionally to IL-8 concentrations and be converted in IL8 pg amounts.
THP-1 cells are seeded on Day 1 in 384 well plate with RPMI 1640 at a density of 30 000 cells/well. Compounds 4×/2% DMSO (range of concentrations from 20 μM to 1 nM) and IL1β 4× at 100 ng/ml final are added to cells overnight at 37° C., 5% CO2. Measurement of IL-8 secretion is done by mixing on Day2 10 μl of supernatant with 10 μl of a mix solution of europium Cryptate and XL665 (v:v) as described by supplier.
HTRF (homogeneous time resolved fluorescence) signal is measured after 3 hours incubation time at 30° C. with a BMG Pherastar reader or equivalent.

Row | SMILES | IC50 [1] [nM] | IC50 [2] [nM]
1 | CCN1CCC[C@@H]1CNC(=O)c1ccc(-n2cc(-c3n[nH]c4ccc(C)cc34)nn2)cc1 [Example 3, N-{[(2R)-1-ethylpyrrolidin-2-yl]methyl}-4-[4-(5-methyl-1H-indazol-3-yl)-1H-1,2,3-triazol-1-yl]benzamide] | 100 to 1000 | 100 to 1000
2 | CCN1CCC[C@H]1CNC(=O)c1ccc(-n2cc(-c3n[nH]c4ccc(C)cc34)nn2)cc1 [Example 4, N-{[(2S)-1-ethylpyrrolidin-2-yl]methyl}-4-[4-(5-methyl-1H-indazol-3-yl)-1H-1,2,3-triazol-1-yl]benzamide] | 100 to 1000 | 100 to 1000
3 | Cc1ccc2[nH]nc(-c3cn(-c4ccc(CN5CCCC5)cc4)nn3)c2c1 [Example 6, 5-methyl-3-{1-[4-(pyrrolidin-1-ylmethyl)phenyl]-1H-1,2,3-triazol-4-yl}-1H-indazole] | 100 to 1000 | 100 to 1000
4 | CNCc1ccc(-n2cc(-c3n[nH]c4ccc(C)cc34)nn2)cc1 [Example 8, N-methyl-1-{4-[4-(5-methyl-1H-indazol-3-yl)-1H-1,2,3-triazol-1-yl]phenyl}methanamine] | 100 to 1000 | 100 to 1000
5 | Cc1ccc2[nH]nc(-c3cn(-c4ccc(CN5CCN(C)CC5)cc4)nn3)c2c1 [Example 9, 5-methyl-3-(1-{4-[(4-methylpiperazin-1-yl)methyl]phenyl}-1H-1,2,3-triazol-4-yl)-1H-indazole] | 1000 to 5000 | 100 to 1000
6 | Cc1ccc2[nH]nc(-c3cn(-c4ccc(CN(C)C)cc4)nn3)c2c1 [Example 10, N,N-dimethyl-1-{4-[4-(5-methyl-1H-indazol-3-yl)-1H-1,2,3-triazol-1-yl]phenyl}methanamine] | 100 to 1000 | 100 to 1000
7 | Cc1ccc2[nH]nc(-c3cn(-c4ccc(CN5CCNCC5)cc4)nn3)c2c1 [Example 11, 5-methyl-3-{1-[4-(piperazin-1-ylmethyl)phenyl]-1H-1,2,3-triazol-4-yl}-1H-indazole] | 100 to 1000 | 100 to 1000
8 | O=C(NCc1ccc(-n2cc(-c3n[nH]c4ccccc34)nn2)cc1)c1ccncc1 [Example 15, N-{4-[4(1H-indazol-3-yl]-1H-1,2,3-triazol-1-yl)benzyl}isonicotinamide] | 1000 to 5000 | 100 to 1000
9 | O=C(Cc1ccc(-n2cc(-c3n[nH]c4ccccc34)nn2)cc1)N1CCCC1 [Example 19, 3-{1-[4-(2-oxo-2-pyrrolidin-1-ylethyl)phenyl]-1H-1,2,3-triazol-4-yl}-1H-indazole] | 100 to 1000 | 100 to 1000
10 | O=C(CCc1ccc(-n2cc(-c3n[nH]c4ccccc34)nn2)cc1)N1CCOCC1 [Example 22, 3-{1-[4-(3-morpholin-4-yl-3-oxopropyl)phenyl]-1H-1,2,3-triazol-4-yl}-1H-indazole] | 1000 to 5000 | 100 to 1000
11 | O=C(CCc1ccc(-n2cc(-c3n[nH]c4ccccc34)nn2)cc1)N1CCCC1 [Example 23, 3-{1-[4-(3-oxo-3-pyrrolidin-1-ylpropyl)phenyl]-1H-1,2,3-triazol-4-yl}-1H-indazole] | 1000 to 5000 | 100 to 1000
12 | COc1cc(-n2cc(-c3n[nH]c4ccccc34)nn2)ccc1C(=O)N(C)C [Example 25, 4-[4-(1H-indazol-3-yl)-1H-1,2,3-triazol-1-yl]-2-methoxy-N,N-dimethylbenzamide] | 100 to 1000 | 100 to 1000
13 | O=C(c1ccc(-n2cc(-c3n[nH]c4ccccc34)nn2)cc1)N1CCC(O)C1 (stereo not drawn) [Example 26, 1-{4-[4-(1H-indazol-3-yl)-1H-1,2,3-triazol-1-yl]benzoyl}pyrrolidin-3-ol] | 100 to 1000 | 100 to 1000
14 | c1ccc2c(-c3cn(-c4ccc(C5CCCNCC5)cc4)nn3)n[nH]c2c1 (stereo not drawn) [Example 269] | < 100 | 
15 | Cc1ccc2c(-c3cn(-c4ccc(C5CCN(CCC(F)(F)F)CC5)cc4)nn3)n[nH]c2c1 [Example 270] | 1000 to 5000 | 
16 | OC(CN1CCC(c2ccc(-n3cc(-c4n[nH]c5cc(F)ccc45)nn3)cc2)CC1)C(F)(F)F (stereo not drawn) [Example 271] | 100 to 1000 | 
17 | CN1[C@@H]2CCC[C@H]1C[C@H](c1ccc(-n3cc(-c4n[nH]c5cc(F)ccc45)nn3)cc1)C2 [Example 272] | < 100 | 
18 | CN1[C@@H]2CCC[C@H]1C[C@H](c1ccc(-n3cc(-c4n[nH]c5ccccc45)nn3)cc1)C2 [Example 273] | < 100 | 
19 | Cc1ccc2c(-c3cn(-c4ccc([C@@H]5C[C@H]6CCC[C@@H](C5)N6C)cc4)nn3)n[nH]c2c1 [Example 274] | < 100 | 
20 | CC1(C)CNCCC1c1ccc(-n2cc(-c3n[nH]c4cc(F)ccc34)nn2)cc1 (stereo not drawn) [Example 275] | < 100 | 
21 | O=C1C[C@@H](OCc2ccc3[nH]nc(-c4cn(-c5ccc(C(=O)N6CCOCC6)cc5)nn4)c3c2)CO1 [Example 276] | 100 to 1000 | 

Row | SMILES | IC50 [1] [nM] | IC50 [2] [nM]
22 | CC1(C)CNCCC1c1ccc(-n2cc(-c3n[nH]c4ccccc34)nn2)cc1 (stereo not drawn) [Example 277] | < 100 | 
23 | CN1C2CCC1CC(n1cc(-n3cc(-c4n[nH]c5ccc(-c6cnn(C)c6)cc45)nn3)cn1)C2 (stereo not drawn) [Example 278] | < 100 | 
24 | Cc1ccc2c(-c3cn(-c4ccc(CN5CCOC(C)(C)C5)cc4)nn3)n[nH]c2c1 [Example 279] | 100 to 1000 | 
25 | OC(CN1[C@@H]2CC[C@H]1C[C@@H](c1ccc(-n3cc(-c4n[nH]c5ccccc45)nn3)cc1)C2)C(F)(F)F (stereo partly drawn) [Example 280] | 100 to 1000 | 
26 | OC(CN1[C@@H]2CC[C@H]1C[C@H](c1ccc(-n3cc(-c4n[nH]c5ccccc45)nn3)cc1)C2)C(F)(F)F (stereo partly drawn) [Example 281] | 100 to 1000 | 
27 | Fc1ccc2c(-c3cn(-c4ccc(CN5CC6CCC(C5)O6)cc4)nn3)n[nH]c2c1 [Example 282] | 1000 to 5000 | 
28 | CC1(C)CN(Cc2ccc(-n3cc(-c4n[nH]c5cc(F)ccc45)nn3)cc2)CCO1 [Example 283] | 1000 to 5000 | 
29 | c1ccc2c(-c3cn(-c4ccc(CN5CC6CCC(C5)O6)cc4)nn3)n[nH]c2c1 [Example 284] | 1000 to 5000 | 
30 | Fc1ccc2c(-c3cn(-c4ccc(CN5CCCCC56COC6)cc4)nn3)n[nH]c2c1 [Example 285] | 100 to 1000 | 
31 | Cc1ccc2c(-c3cn(-c4ccc(CN5CCCCC56COC6)cc4)nn3)n[nH]c2c1 [Example 287] | 100 to 1000 | 
32 | Cc1nn(C)cc1-c1ccc(-n2cc(-c3n[nH]c4ccccc34)nn2)cc1 [Example 289] | 100 to 1000 | 
33 | Cc1cnccc1-c1ccc(-n2cc(-c3n[nH]c4ccccc34)nn2)cc1 [Example 290] | 100 to 1000 | 
34 | CC(=O)Nc1ccc(-c2ccc(-n3cc(-c4n[nH]c5ccccc45)nn3)cc2)cn1 [Example 291] | 100 to 1000 | 
35 | O=C(c1ccc(-n2cc(-c3n[nH]c4ccc(CN5CC(O)C5)cc34)nn2)cc1)N1CCOCC1 [Example 292] | 100 to 1000 | 
36 | Cc1ccc2c(-c3cn(-c4ccc(CN5CC6CCC(C5)O6)cc4)nn3)n[nH]c2c1 [Example 293] | 100 to 1000 | 
37 | c1ccc2c(-c3cn(-c4ccc(-c5cnn(C6CCNCC6)c5)cc4)nn3)n[nH]c2c1 [Example 294] | 100 to 1000 | 
38 | O=C(c1ccc(-n2cc(-c3n[nH]c4ccc(CNCc5cccc(O)c5)cc34)nn2)cc1)N1CCOCC1 [Example 295] | 100 to 1000 | 
39 | O=C(c1ccc(-n2cc(-c3n[nH]c4cc(C(F)(F)F)ccc34)nn2)cc1)N1CCOCC1 [Example 296] | 100 to 1000 | 
40 | FC(F)(F)c1ccc2c(-c3cn(-c4ccc(CN5CCOCC5)cc4)nn3)n[nH]c2c1 [Example 297] | 1000 to 5000 | 
41 | FC(F)(F)c1ccc2c(-c3cn(-c4ccc(C5CCNCC5)cc4)nn3)n[nH]c2c1 [Example 299] | 100 to 1000 | 
